Measured values from publication PMC12686126, “LL‐37 Inhibits TMPRSS2‐Mediated S2' Site Cleavage and SARS‐CoV‐2 Infection but Not Omicron Variants” (Cell Proliferation, 2025).
Entries after “also recorded” stand apart in the source; their conditions may differ. Structures can show the parent of a compound that is named as a salt.

Key:
[1] = system: SARS‐CoV‐2 spike; type: cell-based
[2] = system: Delta spike; type: cell-based, SARS‐CoV‐2 Delta
[3] = system: BA.1 spike; type: cell-based, SARS‐CoV‐2 Omicron BA.1
[4] = system: BA.4/5 spike; type: cell-based, SARS‐CoV‐2 Omicron BA.4/5
[5] = system: SARS‐CoV‐2; settings: cited from earlier work
[6] = system: SARS‐CoV‐2 spike pseudovirus; type: cell-based
[7] = system: TMPRSS2; test: TMPRSS2 activity measurement; type: cell-based, human; settings: 293T‐T2 cells, 2 h at 37°C; Boc‐Phe‐Ser‐Arg‐MCA 100 μM, fluorescence 360/460 nm; LL‐37 0–20 μg/mL, CM and E64d 0–100 μM
Description: 293T‐T2 cells (5 × 10^4/well) in a black 96‐well flat‐bottom plate were treated for 2 h at 37°C with LL‐37 (0, 1, 5, 10, 20 μg/mL), camostat mesylate (0, 0.1, 0.5, 1, 5, 10, 50, 100 μM, MedChemExpress), or E64d (0, 0.1, 0.5, 1, 5, 10, 50, 100 μM, MedChemExpress). The peptide and inhibitors were prepared with DMEM free of FBS. To measure the proteolytic activity of TMPRSS2, the medium was replaced with 100 μL of DMEM free of FBS and phenol red and containing 100 μM of Boc‐Phe‐Ser‐Arg‐MCA (Peptide, Japan). The fluorescence intensity was measured after 2 h of incubation at 37°C using a microplate reader (Biotek, USA). The excitation/emission wavelengths were 360/460 nm. The values were expressed as a percent of fluorescence intensity relative to the control. Camostat mesylate and E64d were used as the positive and negative controls respectively. All procedures were carried out in the dark.

[8] = system: Beta spike pseudovirus; type: cell-based, SARS‐CoV‐2 Beta
[9] = system: Delta spike pseudovirus; type: cell-based, SARS‐CoV‐2 Delta
[10] = system: BA.1 spike pseudovirus; type: cell-based, SARS‐CoV‐2 Omicron BA.1
[11] = system: BA.2 spike pseudovirus; type: cell-based, SARS‐CoV‐2 Omicron BA.2
[12] = system: BA.2.12.1 spike pseudovirus; type: cell-based, SARS‐CoV‐2 Omicron BA.2.12.1
[13] = system: BA.3 spike pseudovirus; type: cell-based, SARS‐CoV‐2 Omicron BA.3
[14] = system: BA.4/5 spike pseudovirus; type: cell-based, SARS‐CoV‐2 Omicron BA.4/5
[15] = system: SARS‐CoV‐2 spike pseudovirus; type: cell-based; remark: listed apart in the source
[16] = system: SARS‐CoV‐2 spike pseudovirus; type: cell-based; remark: listed apart in the source
[17] = system: SARS‐CoV‐2 spike pseudovirus (S1 and S2 subunits) attached to 293T‐A2 cells; type: cell-based
[18] = system: BA.1 spike pseudovirus (S1 and S2 subunits) attached to 293T‐A2 cells; type: cell-based, SARS‐CoV‐2 Omicron BA.1
[19] = system: BA.4/5 spike pseudovirus (S1 and S2 subunits) attached to 293T‐A2 cells; type: cell-based, SARS‐CoV‐2 Omicron BA.4/5
[20] = system: SARS‐CoV‐2 spike S2 subunit; type: binding; settings: pH 9.6
[21] = system: S2 subunit of BA.1 spike; type: binding, SARS‐CoV‐2 Omicron BA.1
[22] = system: SARS‐CoV‐2 spike S1 and S2 subunits; type: binding
[23] = system: 293T‐A2 and 293T‐Mock cell membranes; type: cell-based; settings: 293T-A2 vs 293T-Mock cells treated 2 h with LL-37; western blot (Figure S4A)
[24] = system: SARS‐CoV‐2 spike S2 subunit; type: cell-based
[25] = system: Delta spike S2 subunit; type: cell-based, SARS‐CoV‐2 Delta
[26] = system: BA.1 spike S2 subunit; type: cell-based, SARS‐CoV‐2 Omicron BA.1
[27] = system: BA.4/5 spike S2 subunit; type: cell-based, SARS‐CoV‐2 Omicron BA.4/5
[28] = system: SARS‐CoV‐2 spike; set-up: species or system mouse (BALB/c); settings: mouse, in vivo
[29] = system: SARS‐CoV‐2 spike; set-up: species or system mouse (BALB/c); settings: mouse, in vivo; remark: listed apart in the source
[30] = system: BA.4/5 spike; set-up: species or system mouse (BALB/c); settings: mouse, in vivo
[31] = system: BA.4/5 spike; set-up: species or system mouse (BALB/c); settings: mouse, in vivo; remark: listed apart in the source
[32] = no reference given; cited from earlier work
[33] = system: receptor binding domain (RBD) of spike S1 and the ACE2 receptor; settings: by binding to the RBD and/or ACE2; ref [36], [37], [41], [42]; cited from earlier work
[34] = ref [44]; cited from earlier work
[35] = system: TLR3, TLR7, or TLR9; settings: binds DNA/RNA, elevates type I interferon response; ref [63], [64]; cited from earlier work
[36] = system: FPRL‐1 and CXCR2; settings: receptors involved in chemotaxis of monocytes, neutrophils and lymphocytes; ref [65], [66]; cited from earlier work
[37] = system: FPR‐2 receptor; settings: leading to immunosuppression; ref [67], [68]; cited from earlier work
[38] = system: NF‐kB p50 and p65 subunits; settings: leading to immunosuppression; ref [67], [68]; cited from earlier work

Compound: KRKSFDGFKELILKGRQEIKFKRDIFLVNLRETRPSV [KR‐37, reference compound]
- inhibition of cell–cell fusion [1]: showed no inhibition
- inhibition of cell–cell fusion [2]: showed no inhibition
- inhibition of cell–cell fusion [3]: showed no inhibition
- inhibition of cell–cell fusion [4]: showed no inhibition

Compound: α1‐antitrypsin
- inhibition of SARS‐CoV‐2 entry and replication [5]: high inhibition

Compound: CN(C)C(=O)COC(=O)Cc1ccc(OC(=O)c2ccc(NC(=N)N)cc2)cc1 [CM, camostat mesylate, reference compound]
- reduction of pseudovirus‐induced RLU [6]: about 60%
- suppression of cellular TMPRSS2 activity [7]: suppressed cellular TMPRSS2 activity at sub‐micromolar concentrations
- antiviral activity against SARS‐CoV‐2 [5]: shows antiviral activity against SARS‐CoV‐2

Compound: COC(=O)C[C@](O)(CCCC(C)(C)O)C(=O)O[C@@H]1C(OC)=C[C@]23CCCN2CCc2cc4c(cc2[C@H]13)OCO4 [homoharringtonine]
- inhibition of SARS‐CoV‐2 entry and replication [5]: high inhibition

Compound: LLGDFFRKSKEKIGKEFKRIVQRIKDFLRNLVPRTES [LL‐37]
- inhibition of pseudovirus entry [8]: significantly inhibit
- inhibition of pseudovirus entry [9]: significantly inhibit
- inhibition of pseudovirus entry [10]: inhibitory effects were compromised
- inhibition of pseudovirus entry [11]: inhibitory effects were compromised
- inhibition of pseudovirus entry [12]: inhibitory effects were compromised
- inhibition of pseudovirus entry [13]: inhibitory effects were compromised
- inhibition of pseudovirus entry [14]: inhibitory effects were compromised
- prevention of pseudovirus entry [15]: prevented; also recorded: not if added 2 h post infection (hpi) and 4 hpi
- reduction of RLU caused by LL‐37 with endosomal inhibitor [16]: no significant difference
- plasma membrane‐attached spike (S1 and S2 subunits) [17]: equal quantity
- plasma membrane‐attached spike (S1 and S2 subunits) [18]: equal quantity
- plasma membrane‐attached spike (S1 and S2 subunits) [19]: equal quantity
- inhibition of cell–cell fusion [1]: inhibited
- inhibition of fusion, pretreatment vs treatment during infection ([1]; 10 μg/mL): stronger inhibition of fusion than treatment during infection
- inhibition of cell–cell fusion [2]: inhibited
- inhibition of fusion, pretreatment vs treatment during infection ([2]; 10 μg/mL): stronger inhibition of fusion than treatment during infection
- inhibition of cell–cell fusion [3]: compromised inhibition
- inhibition of cell–cell fusion [4]: compromised inhibition
- binding of S2 subunit to immobilised LL‐37 [20]: much stronger binding
- binding of S2 subunit to immobilised LL‐37 [21]: much lower binding
- spike subunit bound to plasma membrane facilitated by LL‐37 [22]: S2 subunit rather than the S1 subunit
- spike subunits bridged by LL‐37 to plasma membranes [22]: bridged more S2 subunits than S1 subunits
- LL‐37 attachment to cell membrane [23]: could attach to the cell membrane independent of the ACE2 expression
- generation of S2' fragment [24]: remarkably reduced
- generation of S2' fragment [25]: consistent result with that of SARS‐CoV‐2
- generation of S2' fragment [26]: did not significantly reduce
- generation of S2' fragment [27]: did not significantly reduce
- suppression of cellular TMPRSS2 activity [7]: not LL‐37 or E64d suppressed
- IgM responses and titers [28]: elevated IgM responses and titers
- IgG responses [29]: enhanced
- IgG responses and titers [29]: no significant difference
- IgM responses and titers [30]: no difference and low levels to background
- IgG responses and titers [31]: no difference and low levels to background
- overall positive net charge [32]: +6
- block of RBD–ACE2 interaction [33]: block the interaction
- attachment to lipid bilayer [34]: can attach to lipid bilayer via the C‐terminal VPRTES tail
- effect on TLR signalling [35]: augment signalling via TLR3, TLR7, or TLR9
- receptor binding [36]: directly bind with receptors such as FPRL‐1 and CXCR2
- receptor interaction [37]: interact with the FPR‐2 receptor
- prevention of NF‐kB translocation [38]: prevent the translocation of NF‐kB p50 and p65 subunits

Compound: O=C(CC1NCCCC1O)Cn1cnc2cc(Br)c(Cl)cc2c1=O (stereo not shown) [halofuginone]
- inhibition of SARS‐CoV‐2 entry and replication [5]: high inhibition

Compound: CNC(=O)[C@@H](NC(=O)[C@H](CC(C)C)[C@H](O)C(=O)NO)C(C)(C)C [marimastat, reference compound]
- reduction of pseudovirus‐induced RLU [6]: ~25%
- inhibition of SARS‐CoV‐2‐induced membrane fusion [5]: inhibitory activity against SARS‐CoV‐2‐induced membrane fusion at sub‐micromolar levels
